Results taken from patent US7375180B2, “Methods and compositions related to IRM compounds and Toll-like receptor 8” (3M Innovative Properties Company, priority 2003, dated 2008).

Biological target: T1, TLR8 (Homo sapiens, UniProt Q9NR97)
T1 sequence (Q9NR97 27-1041): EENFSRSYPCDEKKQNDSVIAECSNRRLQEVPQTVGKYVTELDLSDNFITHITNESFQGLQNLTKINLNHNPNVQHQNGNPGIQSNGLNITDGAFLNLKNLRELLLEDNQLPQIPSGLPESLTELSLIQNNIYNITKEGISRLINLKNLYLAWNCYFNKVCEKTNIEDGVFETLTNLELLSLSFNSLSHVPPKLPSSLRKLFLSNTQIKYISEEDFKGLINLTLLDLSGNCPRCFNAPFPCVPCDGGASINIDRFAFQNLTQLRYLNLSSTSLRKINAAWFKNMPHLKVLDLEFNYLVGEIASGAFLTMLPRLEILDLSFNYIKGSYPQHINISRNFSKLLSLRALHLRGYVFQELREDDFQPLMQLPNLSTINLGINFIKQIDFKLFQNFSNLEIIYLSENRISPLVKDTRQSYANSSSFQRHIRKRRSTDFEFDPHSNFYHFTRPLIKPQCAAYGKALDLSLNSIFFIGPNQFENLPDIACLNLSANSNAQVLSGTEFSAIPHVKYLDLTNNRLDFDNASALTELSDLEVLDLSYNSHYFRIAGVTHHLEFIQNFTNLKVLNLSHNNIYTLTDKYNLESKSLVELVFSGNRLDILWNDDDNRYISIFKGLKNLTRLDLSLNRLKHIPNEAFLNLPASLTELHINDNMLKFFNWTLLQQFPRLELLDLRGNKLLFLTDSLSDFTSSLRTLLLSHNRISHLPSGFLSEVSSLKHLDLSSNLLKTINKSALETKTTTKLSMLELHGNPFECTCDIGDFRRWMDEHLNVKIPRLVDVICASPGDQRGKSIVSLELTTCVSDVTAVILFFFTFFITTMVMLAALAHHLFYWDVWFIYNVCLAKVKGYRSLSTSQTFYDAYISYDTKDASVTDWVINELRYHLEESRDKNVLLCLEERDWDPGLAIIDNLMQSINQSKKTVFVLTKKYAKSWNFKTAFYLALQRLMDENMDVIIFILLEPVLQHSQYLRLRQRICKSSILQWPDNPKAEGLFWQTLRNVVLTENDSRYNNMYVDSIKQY
Experiment: Dose dependent TLR8-mediated NF-κB-luciferase response in HEK293 cells transfected with TLR8 (Example 5)
Format: cell-based
Parameters: expressed in transfected cells; host or cells: HEK293 (ATCC CRL-1573), pIRES vector, G-418 selected, co-transfected with NFkB-luc reporter
Method: Twenty-four hours before transfection, HEK293 cells were adhered to a 10 cm dish (Corning 430167, Corning Inc., Corning, N.Y.) at 37° C., 8% CO2. The cells were co-transfected with (1) pIRES (BD Biosciences Clontech, Palo Alto, Calif.) either (a) unmodified (HEK293-vector) or (b) containing human TLR8 (HEK293-TLR8), and (2) NFkB-luc reporter (Stratagene, La Jolla, Calif.) in a 10:1 ratio with Fugene 6 transfection reagent (Roche Diagnostics Corp., Indianapolis, Ind.) following the manufacturer's instructions. The plates were incubated for 24 hours following transfection and then selected in G-418 (400 μg/mL) for two weeks. The G-418-resistant cells containing either the TLR8 or empty vector were expanded in HEK293 media supplemented with G-418 for stimulation experiments.
The transfected cells were plated in white opaque 96 well plates (Costar 3917, Corning Inc., Corning, N.Y.) at a concentration of 5×10^4 cells per well in 100 μL of HEK293 media and incubated at 37° C., 8% CO2 for 4 hours. The cells were stimulated with 1 μL of IRM compounds at 1 mM in DMSO (final IRM concentration of 10 μM) or 1 μL DMSO as a control. The plates were then incubated an additional 16 hours at 37° C., 5% CO2. Luminescence was measured on an LMAX luminometer (Molecular Devices Corp., Sunnyvale, Calif.).
HEK293 cells were transfected as described in Example 1. HEK293 cultures were incubated with IRM compound or a negative control compound (1,5-dihydro-1-(2-methylpropyl)-4H-imidazo[4,5-c]quinolin-4-one, U.S. Pat. No. 4,698,348, Example 71) at concentrations of 0.1 μM, 0.3 μM, 1.0 μM, 3.0 μM, 10 μM, or 30 μM, or a vehicle control. Cultures were otherwise incubated as described in Example 1. Luciferase signals were read in RLU (Relative Luciferase Units) as described in Example 1.

Compound | Fold increase over vehicle (0.1 μM) [fold] | Fold increase over vehicle (0.3 μM) [fold] | Fold increase over vehicle (1.0 μM) [fold] | Fold increase over vehicle (3.0 μM) [fold] | Fold increase over vehicle (10 μM) [fold] | Fold increase over vehicle (30 μM) [fold]
COCCc1nc2c(N)nc3ccccc3c2n1CCCCNC(=O)c1cnc2ccccc2c1 [IRM37, N-{4-[4-amino-2-(2-methoxyethyl)-1H-imidazo[4,5-c]quinolin-1-yl]butyl}quinoline-3-carboxamide] | 0.7 | 0.9 | 1.0 | 3.2 | 5.2 | 11.8
COCCc1nc2c(N)nc3c(c2n1CCOCCNC(=O)Nc1ccccc1)CCCC3 [IRM41, N-(2-{2-[4-amino-2-(methoxyethyl)-6,7,8,9-tetrahydro-1H-imidazo[4,5-c]quinolin-1-yl]ethoxy}ethyl)-n′-phenylurea] | 0.7 | 0.9 | 1.0 | 3.3 | 12.7 | 25.4
CCOCc1nc2c(N)nc3ccccc3c2n1CC(C)(C)NC(=O)NC(C)C [IRM47, N-{2-[4-amino-2-(ethoxymethyl)-1H-imidazo[4,5-c]quinolin-1-yl]-1,1-dimethylethyl}-n′-isopropylurea] | 0.9 | 0.8 | 1.1 | 1.7 | 4.9 | 12.5
CCOCc1nc2c(N)nc3cc(-c4ccccc4)ccc3c2n1CC1CCNCC1 [IRM48, 2-ethoxymethyl-7-phenyl-1-(piperidin-4-ylmethyl)-1H-imidazo[4,5-c]quinolin-4-amine] | 0.9 | 0.6 | 1.1 | 1.2 | 8.2 | 9.5
COCCc1nc2c(N)nc3cc(-c4cncc(CO)c4)ccc3c2n1CC(C)(C)O [IRM49, 1-[4-amino-7-(5-hydroxymethylpyridin-3-yl)-2-(2-methoxyethyl)-1H-imidazo[4,5-c]quinolin-1-yl]-2-methylpropan-2-ol] | 1.1 | 1.4 | 2.0 | 3.8 | 7.0 | 15.5
COCCc1nc2c(N)nc3cc(-c4cccc(NS(C)(=O)=O)c4)ccc3c2n1CC(C)(C)O [IRM50, N-{3-[4-amino-1-(2-hydroxy-2-methylpropyl)-2-(methoxyethyl)-1H-imidazo[4,5-c]quinolin-7-yl]phenyl}methanesulfonamide] | 1.8 | 2.1 | 2.2 | 4.1 | 11.7 | 21.1
CCOCc1nc2c(N)nc3cc(-c4cccnc4)ccc3c2n1CC(C)(C)O [IRM51, 1-[4-amino-2-(ethoxymethyl)-7-(pyridin-3-yl)-1H-imidazo[4,5-c]quinolin-1-yl]-2-methylpropan-2-ol] | 1.9 | 3.8 | 11.9 | 15.0 | 21.5 | 22.4

Other lines, results leading:

Fold increase over vehicle (0.1 μM) [fold] | Fold increase over vehicle (0.3 μM) [fold] | Fold increase over vehicle (1.0 μM) [fold] | Fold increase over vehicle (3.0 μM) [fold] | Fold increase over vehicle (10 μM) [fold] | Fold increase over vehicle (30 μM) [fold] | Compound
0.8 | 0.8 | 1.3 | 3.8 | 6.9 | 7.8 | COCCc1nc2c(N)nc3ccccc3c2n1CCCCNC(=O)c1cnc2ccccc2n1 [IRM38, N-{4-[4-amino-2-(2-methoxyethyl)-1H-imidazo[4,5-c]quinolin-1-yl]butyl}quinoxaline-2-carboxamide]
0.9 | 1.1 | 1.2 | 1.5 | 6.8 | 18.0 | CCCCc1nc2c(N)nc3ccccc3c2n1CCCNC(=O)N1CCOCC1 [IRM39, N-[3-(4-amino-2-butyl-1H-imidazo[4,5-c]quinolin-1-yl)propyl]morpholine-4-carboxamide]
1.0 | 0.9 | 0.9 | 1.3 | 3.1 | 16.4 | CCCCc1nc2c(N)nc3ccccc3c2n1CCCS(C)(=O)=O [IRM40, 2-butyl-1-[3-(methylsulfonyl)propyl]-1H-imidazo[4,5-c]quinolin-4-amine]
1.0 | 0.9 | 1.3 | 3.8 | 13.2 | 26.0 | CCCCc1nc2c(N)nc3ccccc3c2n1CCS(=O)(=O)CC [IRM42, 2-butyl-1-[2-(ethylsulfonyl)ethyl]-1H-imidazo[4,5-c]quinolin-4-amine]
2.3 | 2.3 | 3.3 | 2.1 | 5.6 | 17.0 | CCOCC(=O)NC(C)(C)Cn1c(COCC)nc2c(N)nc3ccccc3c21 [IRM43, N-{2-[4-amino-2-(ethoxymethyl)-1H-imidazo[4,5-c]quinolin-1-yl]-1,1-dimethylethyl}-2-ethoxyacetamide]
0.9 | 1.1 | 1.0 | 0.9 | 2.5 | 12.5 | CCc1nc2c(N)nc3ccccc3c2n1CCS(C)(=O)=O [IRM44, 2-ethyl-1-[2-(methylsulfonyl)ethyl]-1H-imidazo[4,5-c]quinolin-4-amine]
1.5 | 2.5 | 6.7 | 12.1 | 17.0 | 24.3 | CCCCc1nc2c(N)nc3ccccc3c2n1CCS(C)(=O)=O [IRM45, 2-butyl-1-[2-(methylsulfonyl)ethyl]-1H-imidazo[4,5-c]quinolin-4-amine]
0.9 | 1.1 | 1.4 | 1.7 | 3.9 | 7.3 | CCCCc1nc2c(N)nc3ccccc3c2n1CC(C)(C)CNC(=O)N1CCOCC1 [IRM46, N-[3-(4-amino-2-butyl-1H-imidazo[4,5-c]quinolin-1-yl)-2,2-dimethylpropyl]morpholine-4-carboxamide]
